Source: patent US10597388B2, “Pyridazinone herbicides” (FMC CORPORATION, priority 2014, dated 2020)

Key:
Format in all cases: in vivo
[1] = test system: blackgrass (Alopecurus myosuroides); assay: Test A greenhouse herbicide test, postemergence; conditions: for Plant response rating, Blackgrass: 125 g ai/ha, 0 to 100 scale where 0 is no effect and 100 is complete control; for Blackgrass plant response rating: 500 g ai/ha, 0 to 100 scale, 0 is no effect, 100 is complete control
Outline: (§1)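 Visual injury score, 0 (no effect) to 100 (complete control), versus untreated controls roughly 10 d after postemergence spray; plants at one- to two-leaf stage, 2 to 10 cm tall, in loam soil and sand, kept in greenhouse.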

[2] = test system: galium (catchweed bedstraw, Galium aparine); assay: Test A greenhouse herbicide test, postemergence; conditions: for Plant response rating, Galium: 125 g ai/ha, 0 to 100 scale where 0 is no effect and 100 is complete control; for Galium plant response rating: 500 g ai/ha, 0 to 100 scale, 0 is no effect, 100 is complete control
Outline: as §1

[3] = test system: johnsongrass (Sorghum halepense); assay: Test C greenhouse herbicide test, pre- and postemergence
From the text: (§2) Seeds of plant species selected from blackgrass (Alopecurus myosuroides), ryegrass, Italian (Italian ryegrass, Lolium multiflorum), wheat (winter wheat, Triticum aestivum), galium (catchweed bedstraw, Galium aparine), corn (Zea mays), large crabgrass, large (large crabgrass, Digitaria sanguinalis), foxtail, giant (giant foxtail, Setaria faberii), johnsongrass (Sorghum halepense), lambsquarters (Chenopodium album), morningglory (Ipomoea coccinea), nutsedge, yellow (yellow nutsedge, Cyperus esculentus), pigweed (Amaranthus retroflexus), ragweed (common ragweed, Ambrosia elatior), soybean (Glycine max), barnyardgrass (Echinochloa crus-galli), oilseed rape (Brassica napus), waterhemp (common waterhemp, Amaranthus rudis), and velvetleaf (Abutilon theophrasti) were planted into a blend of loam soil and sand and treated preemergence with test chemicals formulated in a non-phytotoxic solvent mixture which included a surfactant.
(§3) At the same time, plants selected from these crop and weed species and also chickweed (common chickweed, Stellaria media), kochia (Kochia scoparia), and oat, wild (wild oat, Avena fatua), were planted in pots containing Redi-Earth® planting medium (Scotts Company, 14111 Scottslawn Road, Marysville, Ohio 43041) comprising spaghnum peat moss, vermiculite, wetting agent and starter nutrients and treated with postemergence applications of test chemicals formulated in the same manner. Plants ranged in height from 2 to 18 cm (1- to 4-leaf stage) for postemergence treatments. Treated plants and controls were maintained in a greenhouse for 13 to 15 d, after which time all species were compared to controls and visually evaluated. Plant response ratings, summarized in Table C, are based on a scale of 0 to 100 where 0 is no effect and 100 is complete control. A dash (-) response means no test result.

[4] = test system: nutsedge, yellow (yellow nutsedge, Cyperus esculentus); assay: as above
From the text: as §2, §3

soybean (Glycine max) = assay: as above
From the text: as §2, §3

[5] = test system: chickweed (common chickweed, Stellaria media); assay: Test C greenhouse herbicide test, postemergence
From the text: as §3

kochia (Kochia scoparia) = assay: Test C greenhouse herbicide test, postemergence
From the text: as §3

[6] = test system: oat, wild (wild oat, Avena fatua); assay: Test C greenhouse herbicide test, postemergence
From the text: as §3

[7] = Postemergence, 31 g ai/ha, 0 to 100 scale (0 no effect, 100 complete control)
[8] = Postemergence, 125 g ai/ha, scale 0 to 100, 0 is no effect, 100 is complete control
[9] = Postemergence, 250 g ai/ha, scale 0 to 100, 0 no effect, 100 complete control, 13 to 15 d
[10] = postemergence, 62 g ai/ha, scale 0 to 100, 0 no effect, 100 complete control
[11] = Preemergence, 31 g ai/ha, scale 0 to 100, 0 is no effect, 100 is complete control
[12] = Preemergence, 62 g ai/ha, scale 0 to 100, 0 is no effect, 100 is complete control
[13] = Preemergence, 125 g ai/ha, scale 0 to 100, 0 is no effect, 100 is complete control
[14] = Preemergence, 250 g ai/ha, scale 0 to 100, 0 no effect, 100 complete control

| SMILES | Plant response rating, Blackgrass [1] | Blackgrass plant response rating [1] | Plant response rating, Galium [2] | Galium plant response rating [2] | Johnsongrass plant response rating [3, 7] | Plant response rating, Johnsongrass [3, 8] | Plant response rating, Johnsongrass [3, 9] | Johnsongrass plant response rating [3, 10] | Nutsedge, Yellow plant response rating [4, 7] | Plant response rating, Nutsedge, Yellow [4, 8] | Plant response rating, Nutsedge, Yellow [4, 9] | Nutsedge, Yellow plant response rating [4, 10] | Soybean plant response rating (soybean (Glycine max); [7]) | Plant response rating, Soybean (soybean (Glycine max); [8]) | Plant response rating, Soybean (soybean (Glycine max); [9]) | Soybean plant response rating (soybean (Glycine max); [10]) | Chickweed plant response rating [5, 7] | Plant response rating, Chickweed [5, 8] | Plant response rating, Chickweed [5, 9] | Chickweed plant response rating [5, 10] | other results |
| --- | --- | --- | --- | --- | --- | --- | --- | --- | --- | --- | --- | --- | --- | --- | --- | --- | --- | --- | --- | --- | --- |
| CCC(=O)Oc1c(C)nn(C)c(=O)c1-c1c(C)ccc2ccccc12 [Compound 78] | 30 | 80 | 80 | 100 | 5 | 5 | 5 | 5 | 0 | 35 | 60 | 25 | 0 | 5 | 20 | 0 | 30 | 70 | 80 | 60 | Kochia plant response rating (kochia (Kochia scoparia); [7]): 45; Plant response rating, Kochia (kochia (Kochia scoparia); [8]): 85; Plant response rating, Kochia (kochia (Kochia scoparia); [9]): 90; Kochia plant response rating (kochia (Kochia scoparia); [10]): 70; Oat, Wild plant response rating [6, 7]: 35; Plant response rating, Oat, Wild [6, 8]: 60; Plant response rating, Oat, Wild [6, 9]: 60; Oat, Wild plant response rating [6, 10]: 50 |
| COC(=O)Oc1c(C)nn(C)c(=O)c1-c1c(C)sc2ccc(C)cc12 [Compound 80] | 80 | 80 | 90 | 90 | 5 | 5 | 15 | 5 | 65 | 85 | 95 | 80 | 0 | 5 | 20 | 15 | 90 | 95 | 98 | 95 | Plant response rating, Johnsongrass [3, 11]: 5; Plant response rating, Johnsongrass [3, 12]: 5; Plant response rating, Johnsongrass [3, 13]: 30; Johnsongrass plant response rating [3, 14]: 35; Plant response rating, Nutsedge, Yellow [4, 11]: 20; Plant response rating, Nutsedge, Yellow [4, 12]: 25; Plant response rating, Nutsedge, Yellow [4, 13]: 80; Nutsedge, Yellow plant response rating [4, 14]: 80; Plant response rating, Soybean (soybean (Glycine max); [11]): 0; Plant response rating, Soybean (soybean (Glycine max); [12]): 0; Plant response rating, Soybean (soybean (Glycine max); [13]): 0; Soybean plant response rating (soybean (Glycine max); [14]): 0; Kochia plant response rating (kochia (Kochia scoparia); [7]): 90; Plant response rating, Kochia (kochia (Kochia scoparia); [8]): 90; Plant response rating, Kochia (kochia (Kochia scoparia); [9]): 90; Kochia plant response rating (kochia (Kochia scoparia); [10]): 90; Oat, Wild plant response rating [6, 7]: 90; Plant response rating, Oat, Wild [6, 8]: 90; Plant response rating, Oat, Wild [6, 9]: 95; Oat, Wild plant response rating [6, 10]: 90 |
